Results reported in US8822449B2, “Substituted aminoindanes and analogs thereof, and the pharmaceutical use thereof” (Sanofi, priority 2008, dated 2014).

biological target: T1, sodium-proton exchanger of subtype 3 (NHE3) (Homo sapiens, UniProt P48764); test: Recovery of intracellular pH (pHi) after acidification in LAP1 cells stably expressing NHE3 (BCECF fluorescence, FLIPR); assay type: cell-based; conditions: LAP1 cells stably expressing NHE3; pH recovery after acidification; range 1 is % inhibition at 10 μM; read-out: Activity range (inhibitory effect on NHE3)
T1 construct: expressed in transfected cells
T1 sequence (P48764 26-834): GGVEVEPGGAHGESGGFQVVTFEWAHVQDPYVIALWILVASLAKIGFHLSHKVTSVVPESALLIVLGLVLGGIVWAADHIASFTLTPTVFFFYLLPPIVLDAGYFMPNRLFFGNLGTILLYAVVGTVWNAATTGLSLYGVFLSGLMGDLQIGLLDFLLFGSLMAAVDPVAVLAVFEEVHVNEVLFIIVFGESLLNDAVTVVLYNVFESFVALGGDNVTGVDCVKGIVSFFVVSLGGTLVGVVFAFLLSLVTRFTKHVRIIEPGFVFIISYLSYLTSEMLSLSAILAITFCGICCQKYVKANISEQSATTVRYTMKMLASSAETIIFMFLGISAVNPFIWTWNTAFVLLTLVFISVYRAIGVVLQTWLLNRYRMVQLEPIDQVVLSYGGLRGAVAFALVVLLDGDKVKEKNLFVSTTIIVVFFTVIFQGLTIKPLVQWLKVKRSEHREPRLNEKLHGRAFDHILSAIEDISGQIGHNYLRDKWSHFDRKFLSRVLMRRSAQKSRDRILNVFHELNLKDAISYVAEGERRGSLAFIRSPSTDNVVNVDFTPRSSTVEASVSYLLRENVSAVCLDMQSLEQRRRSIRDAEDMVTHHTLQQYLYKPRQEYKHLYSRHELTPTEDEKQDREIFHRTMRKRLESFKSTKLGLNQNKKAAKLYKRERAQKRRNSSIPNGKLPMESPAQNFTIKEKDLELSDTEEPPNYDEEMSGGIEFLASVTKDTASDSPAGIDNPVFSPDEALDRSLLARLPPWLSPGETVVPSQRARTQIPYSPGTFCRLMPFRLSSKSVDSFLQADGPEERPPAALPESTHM

**Q.** For `CS(=O)(=O)c1ccc(O[C@@H]2c3ccccc3C[C@@H]2NC2CCC2)cc1` (racemic) [Example 706, Cyclobutyl-[rac-cis-(1,2)-1-(4-methanesulfonyl-phenoxy)-indan-2-yl]-amine], which inhibition at 10 µM is on record?
**A.** Its inhibition at 10 µM is 20 to 50%.

**Q.** For `NS(=O)(=O)c1ccc(O[C@H]2c3cc(Cl)cc(Cl)c3C[C@@H]2NC2CCCC2)c(F)c1` [Example 748, 4-(trans-(1S,2S)-4,6-Dichloro-2-cyclopentylamino-indan-1-yloxy)-3-fluoro-benzenesulfonamide], which IC50 is on record?
**A.** The IC50 was 1000 to 10000 nM.

**Q.** For `N[C@H]1CCCN([C@@H]2Cc3ccccc3[C@H]2Oc2ccc(Br)cc2-c2cc[nH]n2)C1` (racemic) [Example 204, (S)-1-{rac-trans-(1,2)-1-[4-bromo-2-(1H-pyrazol-3-yl)phenoxy]indan-2-yl}piperidin-3-ylamine], which IC50 is on record?
**A.** Its IC50 is 1000 to 10000 nM.

**Q.** `Cc1cc(F)ccc1O[C@@H]1c2ccccc2C[C@H]1N1C[C@H]2CNC[C@H]2C1` (racemic) [Example 16, 2-[rac-trans-(1,2)-1-(4-fluoro-2-methylphenoxy)indan-2-yl]octahydropyrrolo[3,4-c]pyrrole] was tested. Which IC50 did it give?
**A.** The IC50 was 1000 to 10000 nM.

**Q.** Which inhibition at 10 µM does the source give for `CS(=O)(=O)c1ccccc1O[C@H]1c2cc(Cl)cc(Cl)c2C[C@@H]1N1CCCC1` [Example 247, 1-[(1S,2S)-4,6-dichloro-1-(2-methanesulfonylphenoxy)indan-2-yl]pyrrolidine] here?
**A.** Its inhibition at 10 µM is 20 to 50%.

**Q.** How did the inhibition at 10 µM turn out when `N[C@@H]1CCCN([C@H]2CCc3ccccc3[C@@H]2Oc2ccccc2N2CCOCC2)C1` (racemic) [Example 48, (R)-1-[rac-trans-(1,2)-1-(2-morpholin-4-ylphenoxy)-1,2,3,4-tetrahydronaphthalen-2-yl]piperidin-3-ylamine] was run?
**A.** Its inhibition at 10 µM is 20 to 50%.

**Q.** `Cc1ccc2c(c1)C(Oc1ccc(S(N)(=O)=O)cc1)C(N1CCCC1)C2` (racemic) [Example 475, 4-(rac-trans-(1,2)-6-methyl-2-pyrrolidin-1-ylindan-1-yloxy)benzenesulfonamide] was tested. Which IC50 did it give?
**A.** Its IC50 is 1000 to 10000 nM.

**Q.** Which IC50 does the source give for `NS(=O)(=O)c1ccc(O[C@@H]2c3ccccc3C[C@H]2NC2CC2)c(F)c1` (racemic) [Example 703, 4-(rac-trans-(1,2)-2-Cyclopropylamino-indan-1-yloxy)-3-fluoro-benzenesulfonamide] here?
**A.** Its IC50 is 1000 to 10000 nM.

**Q.** How did the IC50 turn out when `CS(=O)(=O)c1ccc(O[C@H]2c3cc(Cl)cc(Cl)c3C[C@@H]2N2CC[C@@H](O)C2)cc1` [Example 103, (R)-1-[trans-(1S,2S)-4,6-dichloro-1-(4-methanesulfonylphenoxy)indan-2-yl]pyrrolidin-3-ol] was run?
**A.** The IC50 was < 1000 nM.

**Q.** For `CN1CCCN([C@H]2Cc3c(Cl)cc(Cl)cc3[C@@H]2Oc2ccc(S(C)(=O)=O)cc2)CC1` (racemic) [Example 279, 1-[rac-trans-(1,2)-4,6-dichloro-1-(4-methanesulfonylphenoxy)indan-2-yl]-4-methyl-[1,4]diazepane], which IC50 is on record?
**A.** Its IC50 is < 1000 nM.

**Q.** With `NS(=O)(=O)c1ccc(O[C@H]2c3ccccc3C[C@@H]2CN2CCCCC2)c(Cl)c1` (racemic) [Example 440, 3-chloro-4-(2-piperidin-1-ylmethylindan-1-yloxy)benzenesulfonamide] as the compound, how does the inhibition at 10 µM read?
**A.** Its inhibition at 10 µM is 20 to 50%.

**Q.** With `CC(=O)Nc1cccc(O[C@@H]2c3ccccc3C[C@H]2N2CCC[C@@H](N)C2)c1` (racemic) [Example 679, N-{3-[rac-trans-(1,2)-2-((R)-3-aminopiperidin-1-yl)indan-1-yloxy]phenyl}acetamide] as the compound, how does the IC50 read?
**A.** The IC50 was < 1000 nM.

**Q.** With `N[C@@H]1CCCN([C@H]2CCc3ccccc3[C@@H]2Oc2ccc(N3C(=O)CCC3=O)cc2)C1` (racemic) [Example 326, 1-{4-[rac-trans-(1,2)-2-((R)-3-aminopiperidin-1-yl)-1,2,3,4-tetrahydronaphthalen-1-yloxy]phenyl}pyrrolidine-2,5-dione] as the compound, how does the IC50 read?
**A.** The IC50 was 1000 to 10000 nM.

**Q.** `Cc1nc2cc(O[C@H]3c4cc(Cl)cc(Cl)c4C[C@@H]3N3CCNCC3)ccc2s1` (racemic) [Example 572, 5-(rac-trans-(1,2)-4,6-dichloro-2-piperazin-1-ylindan-1-yloxy)-2-methylbenzothiazole] was tested. Which IC50 did it give?
**A.** Its IC50 is 1000 to 10000 nM.

**Q.** `N#Cc1ccc(O[C@H]2c3cc(Cl)cc(Cl)c3C[C@@H]2N2CC[C@H](O)C2)c(F)c1` [Example 555, 4-[trans-(1S,2S)-4,6-dichloro-2-((S)-3-hydroxypyrrolidin-1-yl)indan-1-yloxy]-3-fluorobenzonitrile] was tested. Which IC50 did it give?
**A.** Its IC50 is 1000 to 10000 nM.

**Q.** Which IC50 does the source give for `O=C1OCCN1c1ccc(Cl)c(O[C@H]2c3cc(Cl)cc(F)c3C[C@@H]2N2CC[C@@H](O)C2)c1` [Example 439, 3-{4-chloro-3-[(1S,2S)-6-chloro-4-fluoro-2-((R)-3-hydroxypyrrolidin-1-yl)indan-1-yloxy]phenyl}oxazolidin-2-one] here?
**A.** Its IC50 is < 1000 nM.

**Q.** `Cc1cc(O[C@H]2c3cc(F)cc(Cl)c3C[C@@H]2N2CCCC2)ccc1S(C)(=O)=O` (racemic) [Example 282, 1-[rac-trans-(1,2)-4-chloro-6-fluoro-1-(4-methanesulfonyl-3-methylphenoxy)indan-2-yl]pyrrolidine] was tested. Which inhibition at 10 µM did it give?
**A.** Its inhibition at 10 µM is 20 to 50%.

**Q.** `N[C@@H]1CCCN([C@@H]2Cc3ccccc3[C@H]2Oc2ccncc2)C1` (racemic) [Example 86, (R)-1-[rac-trans-(1,2)-1-(pyridin-4-yloxy)indan-2-yl]piperidin-3-ylamine] was tested. Which IC50 did it give?
**A.** Its IC50 is 1000 to 10000 nM.

**Q.** Which inhibition at 10 µM does the source give for `N[C@H]1CCCN([C@H]2CCc3ccccc3[C@@H]2Oc2ccc(N3C(=O)CCC3=O)cc2)C1` (racemic) [Example 328, 1-{4-[rac-trans-(1,2)-2-((S)-3-aminopiperidin-1-yl)-1,2,3,4-tetrahydronaphthalen-1-yloxy]phenyl}pyrrolidine-2,5-dione] here?
**A.** The inhibition at 10 µM was 20 to 50%.

**Q.** For `CS(=O)(=O)c1ccc(O[C@H]2c3cc(Cl)cc(Cl)c3C[C@@H]2N2CCC[C@H]2CN2CCCC2)cc1` [Example 195, (S)-1-[trans-(1S,2S)-4,6-dichloro-1-(4-methanesulfonylphenoxy)indan-2-yl]-2-pyrrolidin-1-ylmethylpyrrolidine], which IC50 is on record?
**A.** The IC50 was < 1000 nM.

**Q.** How did the IC50 turn out when `N[C@@H]1CCCN([C@H]2Cc3c(Cl)cc(Cl)cc3[C@@H]2Oc2ccc(S(N)(=O)=O)cc2)C1` [Example 480, 4-[(1S,2S)-2-((R)-3-aminopiperidin-1-yl)-4,6-dichloroindan-1-yloxy]benzenesulfonamide] was run?
**A.** Its IC50 is < 1000 nM.

**Q.** For `CS(=O)(=O)c1ccccc1O[C@H]1c2ccccc2CC[C@@H]1N1CCOCC1` (racemic) [Example 506, 4-[rac-trans-(1,2)-1-(2-methanesulfonylphenoxy)-1,2,3,4-tetrahydronaphthalen-2-yl]morpholine], which inhibition at 10 µM is on record?
**A.** Its inhibition at 10 µM is 20 to 50%.

**Q.** How did the IC50 turn out when `CC(=O)Nc1cccc(O[C@H]2c3cc(Cl)cc(Cl)c3C[C@@H]2N2CCN(C)CC2)c1` [Example 697, N-{3-[trans-(1S,2S)-4,6-dichloro-2-(4-methylpiperazin-1-yl)indan-1-yloxy]phenyl}acetamide] was run?
**A.** Its IC50 is 1000 to 10000 nM.

**Q.** Which IC50 does the source give for `Cc1nnc(C)n1-c1ccc(O[C@H]2c3cc(Cl)ccc3C[C@@H]2N2CCCC2)c(F)c1` [Example 501, 4-[4-(trans-(1S,2S)-6-chloro-2-pyrrolidin-1-ylindan-1-yloxy)-3-fluorophenyl]-3,5-dimethyl-4H-[1,2,4]triazole] here?
**A.** Its IC50 is < 1000 nM.

**Q.** `N[C@@H]1CCCN([C@@H]2Cc3c(Cl)cc(Cl)cc3[C@H]2Oc2ccccc2)C1` [Example 23, (R)-1-(trans-(1R,2R)-4,6-dichloro-1-phenoxyindan-2-yl)piperidin-3-ylamine] was tested. Which IC50 did it give?
**A.** Its IC50 is 1000 to 10000 nM.

**Q.** Which inhibition at 10 µM does the source give for `CN1CCN([C@H]2Cc3c(Cl)cc(Cl)cc3[C@@H]2Oc2ccc(C#N)cc2F)CC1` [Example 485, 4-[(1S,2S)-4,6-dichloro-2-(4-methylpiperazin-1-yl)indan-1-yloxy]-3-fluorobenzonitrile] here?
**A.** Its inhibition at 10 µM is 20 to 50%.
